How the values were obtained:
Test in all cases: relative viability (nuclei count vs DMSO), 5 days (fraction); higher = more cells survive
Olaparib + Pictilisib = compound: O=C(c1cc(Cc2n[nH]c(=O)c3ccccc23)ccc1F)N1CCN(C(=O)C2CC2)CC1 [Olaparib] + CS(=O)(=O)N1CCN(Cc2cc3nc(-c4cccc5[nH]ncc45)nc(N4CCOCC4)c3s2)CC1 [Pictilisib] (partner 1 µM)
In short: (§1)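 Lung cancer cell lines were pin-tool dosed in 1536-well plates on the day after seeding, with either a lone drug or a fixed anchor-drug dose plus five library-drug doses (not always all listed) in √10 steps. Nuclei were counted on 4× images after 5 days. Relative viability is the ratio of treated-well to vehicle-well nuclei counts, with each value a median of duplicate plates.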

Crizotinib + Foretinib = compound: C[C@@H](Oc1cc(-c2cnn(C3CCNCC3)c2)cnc1N)c1c(Cl)ccc(F)c1Cl [Crizotinib] + COc1cc2c(Oc3ccc(NC(=O)C4(C(=O)Nc5ccc(F)cc5)CC4)cc3F)ccnc2cc1OCCCN1CCOCC1 [Foretinib] (partner 0.25 µM)
In short: as §1

Crizotinib + Alpelisib = compound: C[C@@H](Oc1cc(-c2cnn(C3CCNCC3)c2)cnc1N)c1c(Cl)ccc(F)c1Cl [Crizotinib] + Cc1nc(NC(=O)N2CCC[C@H]2C(N)=O)sc1-c1ccnc(C(C)(C)C(F)(F)F)c1 [Alpelisib] (partner 2 µM)
In short: as §1

Carfilzomib + Alpelisib = compound: CC(C)C[C@H](NC(=O)[C@H](CCc1ccccc1)NC(=O)CN1CCOCC1)C(=O)N[C@@H](Cc1ccccc1)C(=O)N[C@@H](CC(C)C)C(=O)[C@@]1(C)CO1 [Carfilzomib] + Cc1nc(NC(=O)N2CCC[C@H]2C(N)=O)sc1-c1ccnc(C(C)(C)C(F)(F)F)c1 [Alpelisib] (partner 2 µM)
In short: as §1

| Cell Line | relative viability (Olaparib + Pictilisib; first compound 0.08 µM) | relative viability (Olaparib + Pictilisib; first compound 0.253 µM) | relative viability (Olaparib + Pictilisib; first compound 2.53 µM) | relative viability (Olaparib + Pictilisib; first compound 8 µM) | relative viability (Crizotinib + Foretinib; first compound 0.03162 µM) | relative viability (Crizotinib + Foretinib; first compound 0.1 µM) | relative viability (Crizotinib + Foretinib; first compound 0.3162 µM) | relative viability (Crizotinib + Foretinib; first compound 1 µM) | relative viability (Crizotinib + Alpelisib; first compound 0.01 µM) | relative viability (Crizotinib + Alpelisib; first compound 0.03162 µM) | relative viability (Crizotinib + Alpelisib; first compound 0.1 µM) | relative viability (Crizotinib + Alpelisib; first compound 0.3162 µM) | relative viability (Crizotinib + Alpelisib; first compound 1 µM) | relative viability (Carfilzomib + Alpelisib; first compound 0.001 µM) | relative viability (Carfilzomib + Alpelisib; first compound 0.003162 µM) | relative viability (Carfilzomib + Alpelisib; first compound 0.01 µM) | relative viability (Carfilzomib + Alpelisib; first compound 0.03162 µM) | relative viability (Carfilzomib + Alpelisib; first compound 0.1 µM) | relative viability (Crizotinib + Foretinib; first compound 0.01 µM) |
| --- | --- | --- | --- | --- | --- | --- | --- | --- | --- | --- | --- | --- | --- | --- | --- | --- | --- | --- | --- |
| HCC-78 | 0.241 | 0.204 | 0.208 | 0.196 | 0.685 | 0.566 | 0.592 | 0.599 | 0.278 | 0.292 | 0.299 | 0.279 | 0.223 | 0.327 | 0.45 | 0.362 | 0.287 | 0.157 | – |
| HCC-366 | 0.135 | 0.179 | 0.11 | 0.138 | 0.841 | 0.893 | – | 0.95 | 0.547 | 0.485 | 0.382 | – | 0.343 | 0.402 | 0.518 | 0.413 | 0.285 | 0.0174 | 0.913 |
| HCC-827 | 0.905 | 0.781 | 1.07 | 0.95 | 0.967 | 0.937 | 0.971 | 1.05 | 0.896 | 0.944 | 0.938 | 0.859 | – | 0.943 | 0.948 | 0.945 | 0.934 | 0.357 | 0.959 |
| HOP-62 | 0.846 | 0.601 | 0.698 | 0.464 | 1.09 | 1.07 | 1.07 | 1.17 | 0.93 | 1 | 0.731 | 0.964 | 1.08 | 0.935 | 1.12 | 0.986 | 0.118 | 0.0839 | 1.09 |
| IA-LM | 0.392 | 0.372 | 0.321 | 0.317 | 1.05 | 1.18 | 1.21 | 1.1 | 0.726 | 0.814 | 0.805 | 0.737 | 0.675 | 0.747 | 0.821 | 0.633 | 0.151 | 0.0147 | 1.07 |
| LC-2-ad | 0.529 | 0.523 | 0.491 | 0.336 | 0.994 | – | 0.884 | 0.877 | 0.839 | 0.981 | 1.01 | – | 0.895 | 0.915 | 0.923 | 0.956 | 0.106 | 0.109 | 0.839 |
| LCLC-97TM1 | 0.263 | 0.233 | 0.174 | 0.152 | – | – | 0.959 | 0.801 | 0.199 | 0.232 | 0.24 | 0.265 | 0.273 | 0.307 | 0.258 | 0.266 | 0.101 | 0.126 | 0.83 |
| LCLC-103H | 0.682 | 0.557 | 0.53 | 0.52 | 0.732 | 0.727 | 0.865 | 0.711 | 0.917 | 0.98 | 1.05 | 1.13 | 1.01 | 0.972 | 1.01 | 0.99 | 0.671 | 0.195 | 0.75 |
| LK-2 | 0.752 | 0.587 | 0.599 | 0.5 | 1.42 | 1.2 | – | 1.27 | 1.14 | 0.885 | 0.898 | 1.3 | 1.14 | – | 1.59 | 1.1 | 0.263 | 0.255 | 1.19 |
| LOU-NH91 | 0.559 | 0.524 | 0.515 | 0.503 | 0.949 | 0.995 | 0.921 | 0.98 | 0.648 | 0.682 | 0.72 | 0.707 | 0.742 | 0.702 | 0.742 | 0.662 | 0.307 | 0.267 | 0.917 |
| LU99A | 0.303 | 0.293 | 0.3 | 0.296 | 0.781 | 0.812 | 0.788 | 0.766 | 0.549 | 0.501 | 0.508 | 0.442 | 0.558 | 0.503 | 0.543 | 0.49 | 0.198 | 0.148 | 0.74 |
| LXF-289 | 0.825 | 0.713 | 0.729 | 0.74 | 1 | 1.01 | 0.914 | 0.954 | 0.968 | 1.07 | 1.01 | 0.987 | 1.03 | 1.06 | 1.07 | 0.979 | 0.0883 | 0.0581 | 0.864 |
| NCI-H23 | 0.684 | 0.365 | 0.397 | 0.292 | 0.905 | 1.01 | – | 0.936 | 0.691 | 0.662 | 0.572 | – | 0.724 | 0.741 | 0.84 | 0.857 | 0.207 | 0.112 | 0.998 |
| NCI-H322M | 0.507 | 0.522 | 0.521 | 0.485 | 1.04 | 0.947 | 1.09 | 0.889 | 0.791 | – | 0.773 | 0.916 | 0.789 | 0.796 | 0.757 | 0.365 | 0.748 | 0.509 | 0.852 |
| NCI-H358 | 0.301 | 0.311 | 0.347 | 0.312 | 0.835 | 0.649 | 0.624 | 0.713 | 0.81 | 0.802 | 0.798 | 0.852 | 0.759 | 1.21 | 1.19 | 0.85 | 0.153 | 0.13 | 0.609 |
| NCI-H1623 | – | – | – | – | 0.92 | 0.829 | 0.873 | 0.801 | – | – | – | – | – | – | – | – | – | – | 0.736 |
| NCI-H1650 | 0.866 | 0.523 | 0.572 | 0.647 | 1.1 | 0.949 | 1.07 | 1.43 | – | – | – | – | – | – | – | – | – | – | – |
| NCI-H1792 | 0.265 | 0.241 | 0.265 | 0.217 | – | – | – | – | 0.627 | 0.789 | 0.658 | 0.663 | 0.726 | 0.648 | 0.742 | 0.674 | 0.756 | 0.386 | – |
| NCI-H2342 | – | – | – | – | 1.04 | 1.06 | 0.978 | 1.14 | – | – | – | – | – | – | – | – | – | – | 1.01 |
| SW 900 | – | – | – | – | 0.877 | 0.823 | 1.01 | 0.742 | – | – | – | – | – | – | – | – | – | – | 0.935 |
